What was measured:
[1] = tested on: human airway epithelial cells (HAECs); experiment: High-throughput sequencing (HTS) of miRNAs at four stages of differentiation of HAECs; details: for Modulation (ratio of the level of intensity of expression in log2 in two stages of differentiation) measured by high-throughput sequencing, D7 − D0 / Modulation (ratio of the level of intensity of expression in log2 in two stages of differentiation) measured by high-throughput sequencing, FC − D7 / Modulation (ratio of the level of intensity of expression in log2 in two stages of differentiation) measured by high-throughput sequencing, WD − D0 / Modulation (ratio of the level of intensity of expression in log2 in two stages of differentiation) measured by high-throughput sequencing, WD − FC / Level of intensity of expression in log2 measured by high-throughput sequencing, D0 / Level of intensity of expression in log2 measured by high-throughput sequencing, D7 / Level of intensity of expression in log2 measured by high-throughput sequencing, FC / Level of intensity of expression in log2 measured by high-throughput sequencing, WD: Table VI; for Level of intensity of expression in log2 At the differentiated stage (WD) measured in HTS: healthy human airway epithelial tissue; for Level of intensity of expression in log2 measured by high-throughput sequencing, D0: stage D0; for Level of intensity of expression in log2 measured by high-throughput sequencing, D7: stage D7; for Level of intensity of expression in log2 measured by high-throughput sequencing, FC: stage FC; for Level of intensity of expression in log2 At the differentiated stage (WD) measured in HTS / Level of intensity of expression in log2 measured by high-throughput sequencing, WD: stage WD
In short: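 Total RNA (with small RNAs) from air-liquid-interface HAECs at ALI-D0, D7, first cilia (~14 d) and fully differentiated (~21 d); adaptor-ligated SOLiD small-RNA libraries, RT-PCR, gel-selected ~105-150 bases. Counts normalized to 10^6 sequences as % abundance; linear-model/empirical Bayes; kept >1% abundance, |Log2 Ratio| <0.5, adjusted P <0.05.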

[2] = tested on: basal cells and pyramidal cells of the airway epithelium; experiment: miRNA expression in sorted basal cells versus pyramidal cells (ciliated + secretory), HTS and Agilent chips; parameters: species or system human; details: for Modulation of expression of the miRNAs in pyramidal cells (323(−)) relative to basal cells 323(+): HTS and Agilent chips; for Intensity of the level of expression in log2 in pyramidal cells (323(−)): pyramidal cells (ciliated + secretory)
In short: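 Nasal polyp or concha epithelial cells from 3 donors FACS-sorted into CD151+/tissue factor+ basal cells and CD151−/TF− pyramidal (ciliated plus mucus-secreting) cells, excluding dead (DAPI) cells and doublets. miRNA profiles from total RNA obtained by Agilent chips or high-throughput sequencing.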

[3] = tested on: human airway epithelial cells (HAECs); experiment: Agilent miRNA chips, miRNA expression at four stages of differentiation of HAECs; details: for Modulation (ratio of the level of intensity of expression in log2 in two stages of differentiation) measured with the Agilent chips, D7 − D0 / Modulation (ratio of the level of intensity of expression in log2 in two stages of differentiation) measured with the Agilent chips, FC − D7 / Modulation (ratio of the level of intensity of expression in log2 in two stages of differentiation) measured with the Agilent chips, WD − D0 / Modulation (ratio of the level of intensity of expression in log2 in two stages of differentiation) measured with the Agilent chips, WD − FC / Level of intensity of expression in log2 measured with the Agilent chips, D0 / Level of intensity of expression in log2 measured with the Agilent chips, D7 / Level of intensity of expression in log2 measured with the Agilent chips, FC / Level of intensity of expression in log2 measured with the Agilent chips, WD: Table VI; for Modulation (ratio of the level of intensity of expression in log2 at two stages of differentiation), FC − D7 / Modulation (ratio of the level of intensity of expression in log2 at two stages of differentiation), WD − FC: Agilent miRNA chips, Table V; for Level of intensity of expression in log2 measured with the Agilent chips, D0: stage D0; for Level of intensity of expression in log2 measured with the Agilent chips, D7: stage D7; for Level of intensity of expression in log2 measured with the Agilent chips, FC: stage FC; for Level of intensity of expression in log2 measured with the Agilent chips, WD: stage WD
In short: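 Arrays probing 866 human and 89 human viral miRNAs were used in parallel with sequencing. The same patients' RNA was labelled and hybridized following the manufacturer's protocol.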

Substance | Modulation (ratio of the level of intensity of expression in log2 in two stages of differentiation) measured by high-throughput sequencing, D7 − D0 [1] [log2] | Modulation (ratio of the level of intensity of expression in log2 in two stages of differentiation) measured by high-throughput sequencing, FC − D7 [1] [log2] | Modulation (ratio of the level of intensity of expression in log2 in two stages of differentiation) measured by high-throughput sequencing, WD − D0 [1] [log2] | Modulation (ratio of the level of intensity of expression in log2 in two stages of differentiation) measured by high-throughput sequencing, WD − FC [1] [log2] | Level of intensity of expression in log2 At the differentiated stage (WD) measured in HTS [1] [log2] | Level of intensity of expression in log2 measured by high-throughput sequencing, D0 [1] [log2] | Level of intensity of expression in log2 measured by high-throughput sequencing, D7 [1] [log2] | Level of intensity of expression in log2 measured by high-throughput sequencing, FC [1] [log2] | Level of intensity of expression in log2 measured by high-throughput sequencing, WD [1] [log2] | Modulation of expression of the miRNAs in pyramidal cells (323(−)) relative to basal cells 323(+) [2] | Intensity of the level of expression in log2 in basal cells (323(+)) [2] [log2] | Intensity of the level of expression in log2 in pyramidal cells (323(−)) [2] [log2] | Modulation (ratio of the level of intensity of expression in log2 in two stages of differentiation) measured with the Agilent chips, D7 − D0 [3] [log2] | Modulation (ratio of the level of intensity of expression in log2 at two stages of differentiation), FC − D7 [3] [log2] | Modulation (ratio of the level of intensity of expression in log2 in two stages of differentiation) measured with the Agilent chips, FC − D7 [3] [log2] | Modulation (ratio of the level of intensity of expression in log2 in two stages of differentiation) measured with the Agilent chips, WD − D0 [3] [log2] | Modulation (ratio of the level of intensity of expression in log2 at two stages of differentiation), WD − FC [3] [log2] | Modulation (ratio of the level of intensity of expression in log2 in two stages of differentiation) measured with the Agilent chips, WD − FC [3] [log2] | Level of intensity of expression in log2 measured with the Agilent chips, D0 [3] [log2] | Level of intensity of expression in log2 measured with the Agilent chips, D7 [3] [log2] | other results
hsa-miR-22: human miRNA, SEQ ID No. 23 (AAGCUGCCAGUUGAAGAACUGU; expressed or natural sequence; listed as Homo sapiens) | 0.80 | −1.14 | 0.40 | 0.73 | 11.22 | 8.89 | 9.69 | 8.55 | 9.29 | −1.73 | 8.81 | 7.07 | 1.09 | −0.66 | −0.66 | 0.48 | 0.05 | 0.05 | 10.67 | 11.75 | Level of intensity of expression in log2 measured with the Agilent chips, FC [3]: 11.10 log2; Level of intensity of expression in log2 measured with the Agilent chips, WD [3]: 11.15 log2
hsa-miR-23b: human miRNA, SEQ ID No. 26 (AUCACAUUGCCAGGGAUUACC; expressed or natural sequence; listed as Homo sapiens) | 1.30 | −0.17 | 1.29 | 0.16 | 9.35 | 14.06 | 15.35 | 15.18 | 15.35 | −2.23 | 9.41 | 7.18 | 1.96 | −0.27 | −0.27 | 1.72 | 0.04 | 0.04 | 8.92 | 10.88 | Modulation (ratio of the level of intensity of expression in log2 in two stages of differentiation), D7 − D0 ([1]; HTS): 1.30 log2; Modulation (ratio of the level of intensity of expression in log2 in two stages of differentiation), FC − D7 ([1]; HTS): −0.17 log2; Modulation (ratio of the level of intensity of expression in log2 in two stages of differentiation), WD − FC ([1]; HTS): 0.16 log2; Abundance (%), D0 ([1]; HTS, ALI-D0): 3.73%; Abundance (%), D7 ([1]; HTS, ALI-D7): 9.19%; Abundance (%), FC ([1]; HTS, ALI-FC): 7.92%; Abundance (%), WD ([1]; HTS, ALI-WD): 6.72%; Level of intensity of expression in log2 measured with the Agilent chips, FC [3]: 10.61 log2; Level of intensity of expression in log2 measured with the Agilent chips, WD [3]: 10.64 log2
hsa-miR-25: human miRNA, SEQ ID No. 27 (CAUUGCACUUGUCUCGGUCUGA; expressed or natural sequence; listed as Homo sapiens) | 0.66 | −0.03 | 0.24 | −0.39 | 3.52 | 9.11 | 9.77 | 9.74 | 9.35 | −0.70 | 5.40 | 4.70 | 1.35 | −0.65 | −0.65 | 0.66 | −0.05 | −0.05 | 7.15 | 8.50 | Level of intensity of expression in log2 measured with the Agilent chips, FC [3]: 7.85 log2; Level of intensity of expression in log2 measured with the Agilent chips, WD [3]: 7.80 log2
hsa-miR-26a: human miRNA, SEQ ID No. 28 (UUCAAGUAAUCCAGGAUAGGCU; expressed or natural sequence; listed as Homo sapiens) | 1.31 | −0.98 | 3.22 | 2.90 | 7.75 | 0.30 | 1.61 | 0.62 | 3.52 | −2.24 | 9.92 | 7.68 | 2.20 | −0.11 | −0.11 | 2.15 | 0.06 | 0.06 | 8.50 | 10.70 | Level of intensity of expression in log2 measured with the Agilent chips, FC [3]: 10.59 log2; Level of intensity of expression in log2 measured with the Agilent chips, WD [3]: 10.65 log2

Reference: patent US9023821B2, “Use of MicroRNA for treating diseases associated with a dysfunction of the cilia in multiciliated epithelial cells” (Centre National de la Recherche Scientifique, priority 2009, dated 2015)
